In the supplement of paper PMC10307832:

Assays:
Assay in all cases: relative viability (nuclei count vs DMSO), 5 days (fraction); higher = more cells survive
[1] = compound: CS(=O)(=O)N1CCN(Cc2cc3nc(-c4cccc5[nH]ncc45)nc(N4CCOCC4)c3s2)CC1 [Pictilisib] + CC(=O)Nc1cccc(-n2c(=O)n(C3CC3)c(=O)c3c(Nc4ccc(I)cc4F)n(C)c(=O)c(C)c32)c1 [Trametinib] (partner 0.02 µM)
Outline: (§1)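 Lung cancer cell lines were pin-tool dosed in 1536-well plates on the day after seeding, with either a lone drug or a fixed anchor-drug dose plus five library-drug doses (not always all listed) in √10 steps. Nuclei were counted on 4× images after 5 days. Relative viability is the ratio of treated-well to vehicle-well nuclei counts, with each value a median of duplicate plates.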

[2] = compound: NC1(c2ccc(-c3nc4ccn5c(=O)[nH]nc5c4cc3-c3ccccc3)cc2)CCC1 [MK-2206] + Nc1nc2[nH]cc(CCc3ccc(C(=O)N[C@@H](CCC(=O)O)C(=O)O)cc3)c2c(=O)[nH]1 [Pemetrexed] (partner 0.2 µM)
Outline: as §1

[3] = compound: CS(=O)(=O)N1CCN(Cc2cc3nc(-c4cccc5[nH]ncc45)nc(N4CCOCC4)c3s2)CC1 [Pictilisib] + Nc1nc2[nH]cc(CCc3ccc(C(=O)N[C@@H](CCC(=O)O)C(=O)O)cc3)c2c(=O)[nH]1 [Pemetrexed] (partner 0.2 µM)
Outline: as §1

[4] = compound: CS(=O)(=O)N1CCN(Cc2cc3nc(-c4cccc5[nH]ncc45)nc(N4CCOCC4)c3s2)CC1 [Pictilisib] + CCNC(=O)c1noc(-c2cc(C(C)C)c(O)cc2O)c1-c1ccc(CN2CCOCC2)cc1 [Luminespib] (partner 0.01 µM)
Outline: as §1

[5] = compound: CS(=O)(=O)N1CCN(Cc2cc3nc(-c4cccc5[nH]ncc45)nc(N4CCOCC4)c3s2)CC1 [Pictilisib] + CC(=O)c1c(C)c2cnc(Nc3ccc(N4CCNCC4)cn3)nc2n(C2CCCC2)c1=O [Palbociclib] (partner 0.5 µM)
Outline: as §1

Row | Cell Line | relative viability ([1]; first compound 0.02 µM) | relative viability ([1]; first compound 0.06325 µM) | relative viability ([1]; first compound 0.6325 µM) | relative viability ([1]; first compound 2 µM) | relative viability ([2]; first compound 0.01 µM) | relative viability ([2]; first compound 0.03162 µM) | relative viability ([2]; first compound 0.3162 µM) | relative viability ([2]; first compound 1 µM) | relative viability ([3]; first compound 0.02 µM) | relative viability ([3]; first compound 0.06325 µM) | relative viability ([3]; first compound 0.6325 µM) | relative viability ([3]; first compound 2 µM) | relative viability ([4]; first compound 0.02 µM) | relative viability ([4]; first compound 0.06325 µM) | relative viability ([4]; first compound 0.6325 µM) | relative viability ([4]; first compound 2 µM) | relative viability ([5]; first compound 0.02 µM) | relative viability ([5]; first compound 0.06325 µM) | relative viability ([5]; first compound 0.6325 µM) | relative viability ([5]; first compound 2 µM)
1 | NCI-H1734 | 0.692 | 0.717 | 0.499 | 0.315 | 0.393 | 0.391 | 0.401 | 0.391 | 0.39 | 0.417 | 0.39 | 0.355 | 0.174 | 0.179 | 0.164 | 0.171 | 0.303 | 0.338 | 0.281 | 0.192
2 | NCI-H1755 | 0.821 | 0.667 | 0.718 | 0.327 | 0.405 | 0.404 | 0.353 | 0.374 | 0.472 | 0.397 | 0.396 | 0.329 | 0.412 | 0.384 | 0.305 | 0.189 | 0.447 | 0.417 | 0.458 | 0.323
3 | NCI-H1792 | 0.505 | 0.346 | 0.305 | 0.102 | 0.76 | 0.929 | 0.654 | 0.373 | 0.924 | 0.954 | 0.553 | 0.177 | 0.366 | 0.41 | 0.25 | 0.225 | 0.62 | 0.693 | 0.512 | 0.34
4 | NCI-H1793 | 0.397 | 0.448 | 0.332 | 0.211 | 0.908 | 0.863 | 0.844 | 0.783 | 0.828 | 0.754 | 0.522 | 0.276 | 0.152 | 0.189 | 0.152 | 0.168 | 0.25 | 0.234 | 0.199 | 0.183
5 | NCI-H1915 | 0.322 | 0.295 | 0.285 | 0.244 | 0.487 | 0.42 | 0.473 | 0.494 | 0.548 | 0.524 | 0.464 | 0.394 | 0.784 | 0.864 | 0.699 | 0.642 | 0.524 | 0.542 | 0.5 | 0.471
6 | NCI-H1944 | 0.451 | 0.349 | 0.337 | 0.183 | 0.612 | 0.575 | 0.603 | 0.576 | 0.649 | 0.487 | 0.469 | 0.287 | 0.768 | 0.46 | 0.498 | 0.239 | 0.322 | 0.235 | 0.226 | 0.183
7 | NCI-H1975 | 0.326 | 0.369 | 0.194 | 0.142 | 0.314 | 0.286 | 0.331 | 0.262 | 0.304 | 0.301 | 0.272 | 0.193 | 0.19 | 0.172 | 0.142 | 0.136 | 0.553 | 0.544 | 0.342 | 0.143
8 | NCI-H1993 | 0.543 | 0.469 | 0.523 | 0.488 | 0.727 | 0.555 | 0.516 | 0.477 | 0.608 | 0.605 | 0.449 | 0.442 | 0.73 | 0.634 | 0.55 | 0.523 | 0.573 | 0.622 | 0.497 | 0.37
9 | NCI-H2009 | 0.36 | 0.277 | 0.167 | 0.116 | 1.05 | 1.01 | 1.05 | 1.03 | 1.04 | 1.12 | 1.17 | 0.875 | 1.01 | 1.05 | 1.04 | 0.773 | 0.149 | 0.175 | 0.165 | 0.125
10 | NCI-H2023 | 0.52 | 0.404 | 0.315 | 0.172 | 0.266 | 0.195 | 0.25 | 0.209 | 0.195 | 0.228 | 0.171 | 0.105 | 0.936 | 0.753 | 0.286 | 0.103 | 0.339 | 0.33 | 0.161 | 0.148
11 | NCI-H2085 | 0.443 | 0.471 | 0.2 | 0.26 | 0.866 | 1.02 | 0.953 | 0.841 | 0.826 | 0.911 | 0.401 | 0.303 | 0.44 | 0.431 | 0.409 | 0.265 | 0.465 | 0.462 | 0.362 | 0.267
12 | NCI-H2087 | 0.204 | 0.165 | 0.138 | 0.153 | 0.623 | 0.624 | 0.667 | 0.684 | 0.7 | 0.736 | 0.612 | 0.553 | 0.138 | 0.144 | 0.19 | 0.165 | 0.199 | 0.255 | 0.19 | 0.162
13 | NCI-H2126 | 0.532 | 0.531 | 0.378 | 0.278 | 0.708 | 0.653 | 0.61 | 0.701 | 0.692 | 0.661 | 0.518 | 0.379 | 0.847 | 0.852 | 0.646 | 0.421 | 0.357 | 0.317 | 0.32 | 0.341
14 | NCI-H2170 | 0.864 | 0.916 | 0.784 | 0.587 | 0.246 | 0.264 | 0.286 | 0.24 | 0.268 | 0.273 | 0.249 | 0.228 | 0.715 | 0.65 | 0.419 | 0.166 | 0.351 | 0.375 | 0.266 | 0.165
15 | NCI-H2228 | 0.391 | 0.519 | 0.199 | 0.148 | 0.333 | 0.307 | 0.336 | 0.318 | 0.316 | 0.252 | 0.334 | 0.119 | 0.12 | 0.184 | 0.129 | 0.121 | 0.64 | 1.04 | 0.492 | 0.282
